Data set [1] relates to VEGF-stimulated proliferation of human umbilical vein endothelial cells (HUVEC). The data set can be described thus: In vitro HUVEC proliferation assay, VEGF-stimulated. The data set is classed as cell-based. The note with it: read-out: IC50 for inhibition of VEGF-stimulated endothelial cell proliferation. As for the experimental part:
(b) In Vitro HUVEC Proliferation Assay
(§1) HUVEC cells were isolated in MCDB 131 (Gibco BRL)+7.5% v/v foetal calf serum (FCS) and were plated out (at passage 2 to 8), in MCDB 131+2% v/v FCS+3 μg/ml heparin+1 μg/ml hydrocortisone, at a concentration of 1000 cells/well in 96 well plates. After a minimum of 4 hours they were dosed with VEGF (3 ng/ml) and compound. The cultures were then incubated for 4 days at 37° C. with 7.5% CO2. On day 4 the cultures were pulsed with 1 μCi/well of tritiated-thymidine (Amersham product TRA 61) and incubated for 4 hours. The cells were harvested using a 96-well plate harvester (Tomtek) and then assayed for incorporation of tritium with a Beta plate counter. Incorporation of radioactivity into cells, expressed as cpm, was used to measure inhibition of growth factor-stimulated cell proliferation by compounds. This methodology was also used to assess compound effects versus basal HUVEC growth (i.e. endothelial cell proliferation in MCDB 131+2% v/v FCS […]+3 μg/ml heparin+1 μg/ml hydrocortisone without the addition of exogenous VEGF).

In data set [2] the test system is basal HUVEC growth (without exogenous VEGF). The data set can be described thus: In vitro HUVEC proliferation assay, basal growth. The format is cell-based. The note with it: Homo sapiens, no exogenous VEGF, read-out: IC50 for inhibition of basal endothelial cell proliferation. As for the experimental part:
as §1

A further data set relates to Calu-6 tumour xenograft. Nature of the data set: In vivo solid tumour disease model. More on the design: species or system female athymic Swiss nu/nu mice. Particulars: once-daily oral, 28 days. As for the experimental part: (c) In Vivo Solid Tumour Disease Model This test measures the capacity of compounds to inhibit solid tumour growth. CaLu-6 tumour xenografts were established in the flank of female athymic Swiss nu/nu mice, by subcutaneous injection of 1×10^6 Calu-6 cells/mouse in 100 μl of a 50% (v/v) solution of Matrigel in serum free culture medium. […] Tumours were measured using vernier calipers and volumes were calculated as: (l×w)×√(l×w)×(π/6), where l is the longest diameter and w the diameter perpendicular to the longest. Test compounds were administered orally once daily for a minimum of 21 days, and control animals received compound diluent. Tumours were measured twice weekly. The level of growth inhibition was calculated by comparison of the mean tumour volume of the control group versus the treatment group using a Student T test and/or a Mann-Whitney Rank Sum Test. The inhibitory effect of compound treatment was considered significant when p<0.05.

Data set [3] is described as follows: Solid state stability of the free base on dehydration / micronisation (XRPD). The data set is classed as physicochemical. Here is the method:
This is shown by a broadening of the peaks and formation of an amorphous 'hump'-see FIG. 4. […] The X-ray powder diffraction spectra were determined by mounting a sample of the crystalline salt on Siemens single silicon crystal (SSC) wafer mounts and spreading out the sample into a thin layer with the aid of a microscope slide. The sample was spun at 30 revolutions per minute (to improve counting statistics) and irradiated with X-rays generated by a copper long-fine focus tube operated at 40 kV and 40 mA with a wavelength of 1.5406 angstroms. The collimated X-ray source was passed through an automatic variable divergence slit set at […] and the reflected radiation directed through a 2 mm antiscatter slit and a 0.2 mm detector slit. The sample was exposed for 1 second per 0.02 degree 2-theta increment (continuous scan mode) over the range 2 degrees to 40 degrees 2-theta in theta-theta mode. The running time was 31 minutes and 41 seconds. The instrument was equipped with a scintillation counter as detector. Control and data capture was by means of a Dell Optiplex 686 NT 4.0 Workstation operating with Diffract+ software. Persons skilled in the art of X-ray powder diffraction will realise that the relative intensity of peaks can be affected by, for example, grains above 30 microns in size and non-unitary aspect ratios which may affect analysis of samples. […]

Data set [4] can be described thus: Dynamic vapour sorption, moisture content at 80% RH. Particulars: 80% relative humidity. The format is physicochemical. As for the experimental part:
Dynamic Vapour Sorption Analytical Instrument: Surface Measurements Systems Dynamic Vapour Sorption Analyser. About 5 mg of material contained in a quartz holder at 25° C. was subjected to humidified nitrogen at the following relative humidities (RH): 0, 20, 40, 60, 80, 95, 80, 60, 40, 20, 0% RH in duplicate.

Data set [5] can be described thus: Evidence of hydrate formation (vapour sorption or TGA). Particulars: vapour sorption (hysteresis, water absorption) or TGA. The format is physicochemical. Here is the method: About 5 mg of material contained in a quartz holder at 25° C. was subjected to humidified nitrogen at the following relative humidities (RH): 0, 20, 40, 60, 80, 95, 80, 60, 40, 20, 0% RH in duplicate. Typically between 3 and 12 mg of material contained in a 70 μl alox (aluminium oxide) crucible was heated over the temperature range 25° C. to 325° C. at a constant heating rate of 10° C. per minute. A purge gas using helium was used—flow rate 50 ml per minute.

Data set [6] in a line: Evidence for polymorphism from DSC thermograms. The format is physicochemical. Here is the method: Analytical Instrument: Mettler DSC820e. Typically less than 5 mg of material contained in a 40 μl aluminium pan fitted with a pierced lid was heated over the temperature range 25° C. to 325° C. at a constant heating rate of 10° C. per minute. A purge gas using nitrogen was used—flow rate 100 ml per minute.

Data set [7] is described as follows: Crystallinity of AZD2171 salts. The data set is classed as physicochemical.

On to `COc1cc2c(Oc3ccc4[nH]c(C)cc4c3F)ncnc2cc1OCCCN1CCCC1` [AZD2171, 4-((4-fluoro-2-methyl-1H-indol-5-yl)oxy)-6-methoxy-7-(3-(pyrrolidin-1-yl)propoxy)quinazoline], for which the figures for the IC50 in data set [1] and in data set [2] were 400 ± 200 pM and more than 500000 pM, respectively. In addition, the “Inhibition of growth of Calu-6 tumour xenograft” value came out at 49% in the data set with Calu-6 tumour xenograft (1.5 mg/kg/day, P<0.01); 69% with Calu-6 tumour xenograft (3 mg/kg/day, P<0.0001); 91% with Calu-6 tumour xenograft (6 mg/kg/day, P<0.0001). Further, the “Solid form after dehydration” value in data set [3] (heating to 100° C., FIG. 3) is reported as “becomes amorphous”. Besides, the “Solid form after particle size reduction” value in data set [3] (micronisation, FIG. 4) is “amorphous material does indeed form”.
In data set [4], Fumarate had a Moisture Content at 80% RH of 3.5%. Further, the “Evidence of Hydrate Formation (Yes/No)” value in data set [5] is recorded as “No”. Further, in data set [6], the “No of Polymorphs” value was “≧3”. Moreover, the “Crystalline (Yes/No)” value in data set [7] is “Yes”.
For the molecule Malonate, the “Evidence of Hydrate Formation (Yes/No)” value in data set [5] was “Yes”. The “No of Polymorphs” value in data set [6] was “≧3”. Also, the “Crystalline (Yes/No)” value in data set [7] is “Yes”.
